# Assay results: patent US12677850B2, “Stevia blends containing rebaudioside B” (Tate & Lyle Solutions USA LLC, priority 2011, dated 2026)
# Key:
# [1] = format: physicochemical; settings: pH 3
# Protocol: To determine the solubility of rebaudioside A and rebaudioside B in certain solutions, four stock solutions were prepared. A 10× concentrated citric acid/sodium citrate pH 3 stock buffer solution was prepared by dissolving 0.9 g anhydrous citric acid and 0.26 g of sodium citrate dihydrate in water to make 100 mL of buffer (0.047 M citric acid+0.0088 M sodium citrate). A 2500 ppm (nominal) solution of rebaudioside A was prepared by dissolving 0.125 g of GLG RA 97 to make 50 mL of solution. A 2500 ppm (nominal) solution of stevioside was prepared by dissolving 0.125 g of GLG STV 97 to make 50 mL of solution. A 1000 ppm (nominal) solution of rebaudioside B was prepared by diluting 56 mL of a solution assayed at 1790 ppm to make 100 mL of solution.
# These solutions were mixed as 1 mL total amounts by micropipetting the volumes, in microliters, into 1.5 mL microcentrifuge tubes As shown in Table 14.
# After standing for […] (~100 hours), the tubes were spun in a bench top microcentrifuge to pelletize the precipitate. The clear supernate was sampled into vials and assayed for glycosides using a reverse phase high performance liquid chromatograph (HPLC) gradient method with UV detection (Waters 2695 Separations Module equipped with a Waters 2487 Dual X Absorbance Detector or equivalent instrumentation) that is summarized in Table 15. The HPLC conditions were as follows:
# The supernatant data collected from the HPLC were processed using DESIGN EXPERT 8 software. Briefly, the data were entered into the program as “factor” data as a 2 factor-5 level general factorial design as the nominal data which were then converted to numerical data and replaced by the actual HPLC results. The software then selected a model that predicted the concentration (solubility) of rebaudioside B as a function of the concentration of rebaudioside A and stevioside in the supernatant. The software also calculated a number of statistical factors that indicated the significance of the model parameters.
# informal testers = experiment: Informal testing of bitterness; format: in vivo, human; settings: adding about 20%; as believed by several informal testers
# From the text: Because the scale used encompasses “the universe”, the magnitude of differences between the 97% rebaudioside A solution and increasing levels of rebaudioside B is not as large as other informal testing determined.
# [2] = tested on: panelists (descriptive panel); experiment: Descriptive panel: flavor attributes and intensities as a function of rebaudioside B content (Example 6); format: in vivo, human; settings: for Anise, comparison between the samples / Artificial Sweetener/Chemical, comparison between the samples / Sweetness, comparison between the samples / Total Flavor, comparison between the samples / True Bitter, comparison between the samples / Mouthcoating, comparison between the samples / Total Off Flavor, comparison between the samples: significant at the 95% confidence level
# Protocol: A descriptive panel was used to quantify flavor attributes and intensities of varying levels of rebaudioside B added to rebaudioside A (which was 97% pure and contained 0.62% rebaudioside B). […] An 8% sucrose solution as a control. The solutions were prepared in neutral pH water. Other high intensity sweeteners included in the testing were Aspartame at 500 ppm, ASK at 750 ppm, Sucralose at 250 ppm, and Stevia at 500 ppm.
# Before conducting the testing the ten panelists were extensively trained in the use of standardized vocabulary to describe the appearance, aroma, flavor, and texture of a wide variety of products in order to rate the samples for sweetness, bitterness, off flavor, chemical or artificial sweetener flavor, anise, and mouth coating. Each such attribute was evaluated on a first and second sip, and on after-taste. The testing began with a session to orient the panelists during which they tasted the samples and discussed the flavor characteristics. They also tasted and discussed references for “sweet”, “bitter”, and “anise”.
# During the second and third days of testing, the panelists evaluated the samples for the various attributes and rated them on a scale from none to extreme that encompasses all food ingredient products, not just sweeteners. The products and solutions set forth in Table 19 were used to “anchor” the panelist to the scales.
# Eight samples were evaluated per session. A 7 minute rest break was given between each sample and a 15 minute break was given after the first 4 samples had been evaluated. Two evaluations (i.e. replicates) were obtained from each panelist for each product; therefore, a total of 20 judgments were obtained for each product. During data collection, the panelists were instructed to indicate the intensity of each sensory characteristic by placing a vertical slash on 15-cm line scales. The serving order was balanced, with products seen approximately an equal number of times in each possible position. In the waiting room, ambient Alhambra drinking water, unsalted soda crackers, and celery were provided for cleansing the palate between samples.
# Slash marks on the line scales were converted to numbers ranging from 1 to 15 by SIMS, the computerized sensory data collection system. Mean intensities were calculated for each sensory characteristic. Analysis of Variance and Duncan's Multiple Range Test, where appropriate, were used to determine significant differences among the samples for each attribute. When panelist-by-product interactions were significant, the mean square of the interaction term, instead of the mean square of the error term, was used in calculation of the product F values.
# The flavor attributes were also compared between the samples.
# [3] = tested on: Tate & Lyle employees (taste panel); experiment: Paired comparison test for sweetness and preference in pH 3.1 citric acid buffer (Examples 1 and 2); format: in vivo, human
# Protocol: A commercial blend of a steviol glycosides was dissolved in 0.0056 M citric acid buffer pH 3.1. A solution containing a commercially available sweetening composition containing 97% rebaudioside A was similarly prepared. Thirty-one […] employees participated in paired comparison tests for sweetness and preference. The products were made up in pH 3.1 citric acid buffer (0.9 grams anhydrous citric […], Decatur, IL) and 026 grams sodium citrate dihydrate ([…], Decatur, IL) per liter and tested at room temperature in two ounce soufflé cups label with random three-digit codes. The presentation order was rotated. The panelists were asked to identify the solution that was sweeter and which they like better. The ballot was presented and the data was collected with SIMS sensory software (Sensory Computer Systems, LLC, Morristown, NJ). Bottled water, a 2% sucrose solution, and unsalted crackers were available for the panelists to clear their palates before and during testing. The results of the sweetness and preference questions were analyzed with the binomial test and the Thurstonian d' calculated. The p-value for a one-tailed binomial test is calculated as [formula] where c is the number of successes, n is the number of trials, and p0 is the chance probability. A test is considered statistically significant when the p-value is less than the a priori set alpha risk. The two-tailed p-value is double the one-tailed p-value as calculated above. Thurstonian d' is a linear measure of psychophysical difference. A d' of 1 is generally considered to be a just-noticeable-difference (JND) where a stimulus will be judge stronger in 75% of the trials. The Thurstonian d' is independent of test method and for paired comparison tests is calculated as pc=Φ(d'/√{square root over (2)}) where pc is the proportion of successes, and Φ(•) is the cumulative distribution function of the standard normal distribution. These statistical terms are more fully defined in standard textbooks on the subject such as “Sensory Discrimination Tests and Measurements”, Jian Bi (Blackwell Publishing, 2006). The instructions for the paired comparison test were: • (i) It is important that you rinse before and between samples. • (ii) Clear your palate with a bite of cracker. Then rinse with the sugar water. […] Pick the sample that you like more and pick the sample that is sweeter. They may or may not be the same sample. If you are not sure or don't have a preference then pick either one. The questions for the paired comparison test were: • (i) Which of these two samples do you like more?, • (ii) Which of the two samples is sweeter? The glycoside blend of a steviol glycosides was dissolved in 0.0056 M citric acid buffer pH 3.1. A solution containing a commercially available sweetening composition containing 97% rebaudioside A was similarly prepared. The two solutions were presented to a panel of […] employees and they were asked to identify the solution that was sweeter and which they like better using the same instructions and questions as set forth above. The results of the sweetness and preference questions were analyzed with the binomial test and the Thurstonian d' calculated as set forth above. A taste panel was asked to compare a commercial mixture of rebaudioside A and stevioside to a 500 ppm sample of 97% rebaudioside A. The glycoside blend of steviol glycosides was dissolved in 0.0056 M citric acid buffer pH 3.1. A solution containing a commercially available sweetening composition containing 97% rebaudioside A was similarly prepared. Sample presentation was rotated and the samples of the two solutions (at room temperature) were presented to a panel of […] employees and they were asked to identify the solution that was sweeter and which they like better using the same instructions and questions as in Example 1. […] Another panel was asked to compare a mixture of rebaudioside B and Stevioside. The glycoside blend of steviol glycosides was dissolved in 0.0056 M citric acid buffer pH 3.1. […]
# [4] = tested on: Tate & Lyle employees (taste panel); experiment: Paired comparison test for sweetness and preference, Reb A/Reb B mixture vs 900 ppm 97% rebaudioside A (Example 3); format: in vivo, human; settings: 536 ppm Reb A + 310 ppm Reb B vs control 900 ppm Reb A; spring water with phosphoric acid; room temperature; test sample tasted first
# Protocol: A taste panel was asked to compare a commercial mixture of rebaudioside A and rebaudioside B and a 900 ppm sample of 97% rebaudioside A. Tate &Lyle employees participated in paired comparison tests for sweetness and preference. Samples were tested at room temperature in two ounce soufflé cups label with random three-digit code& The presentation order was not rotated because of carryover of the off-flavor of rebaudioside A at 900 ppm. The panelist evaluated the test sample first and then the control 900 ppm rebaudioside A sample. The panelists were instructed not to re-taste the samples. Additionally, the panelists were required to wait one minute between testing samples and instructed to clear their palates with a 2% sucrose solution, an unsalted cracker, and bottled water. The panelists were asked to identify the solution that was sweeter and which they like better. The ballot was presented and the data was collected with SIMS sensory software (Sensory Computer Systems, LLC, Morristown, NJ).
# The instructions for the paired comparison test were: • (i) It is important that you rinse before and between samples. • (ii) Clear your palate with a bite of cracker. Then rinse with the sugar water. […]
# [5] = Commercial Blend (total 518 mg/l) vs 97% rebaudioside A (total 498), room temperature, 31 panelists
# [6] = Rebaudioside A & stevioside blend (total 789 mg/l) vs 500 ppm 97% rebaudioside A, 41 panelists
# [7] = Rebaudioside B & stevioside blend (total 801 mg/l) vs 97% rebaudioside A (500 ppm), 43 panelists
# [8] = Rebaudioside B blend (total 496 mg/l, about 21% Reb B) vs 97% rebaudioside A (total 498), 38 panelists
# [9] = 900 ppm rebaudioside A+rebaudioside B in neutral pH water, 8% sucrose control, 15-cm line scale converted to 1 to 15, aftertaste
# [10] = 900 ppm rebaudioside A+rebaudioside B in neutral pH water, 8% sucrose control, 15-cm line scale converted to 1 to 15, first sip
# [11] = 900 ppm rebaudioside A+rebaudioside B in neutral pH water, 8% sucrose control, 15-cm line scale converted to 1 to 15, second sip
compound,measurement,setting,value
rebaudioside A,effect of its presence on the solubility of rebaudioside B,[1],increases
same,reduction of bitterness,informal testers,about 80%
same,reduction of bitterness,"[2]; adding about 20%, results from the descriptive panel of tasters",about 30%
rebaudioside A [97% rebaudioside A],# preferring,[3]; [5],20
same,# sweeter,[3]; [5],15
same,# preferring,[3]; [6],37
same,# sweeter,[3]; [6],19
same,# preferring,[3]; [7],22
same,# sweeter,[3]; [7],13
same,# preferring,[3]; [8],11
same,# sweeter,[3]; [8],11
rebaudioside A [control 900 ppm Reb A],preference (number of panelists preferring the sample),[4],2
same,sweetness (number of panelists choosing the sample as sweeter),[4],15
C=C1C[C@@]23CC[C@H]4[C@@](C)(CCC[C@@]4(C)C(=O)O[C@@H]4O[C@H](CO)[C@@H](O)[C@H](O)[C@H]4O)[C@@H]2CC[C@]1(O[C@@H]1O[C@H](CO)[C@@H](O)[C@H](O)[C@H]1O[C@@H]1O[C@H](CO)[C@@H](O)[C@H](O)[C@H]1O)C3 [stevioside],effect of its presence on the solubility of rebaudioside B,[1],slightly reduces
"OC[C@H]1O[C@@](CO)(O[C@H]2O[C@H](CO)[C@@H](O)[C@H](O)[C@H]2O)[C@@H](O)[C@@H]1O [Sucrose, sucrose]",ANISE: Aftertaste (mean intensity),[2]; [9],0.13
same,ARTIFICIAL SWEETENER/CHEMICAL: Aftertaste (mean intensity),[2]; [9],0.12
same,SWEET: Aftertaste (mean intensity),[2]; [9],3.92
same,TOTAL FLAVOR: Aftertaste (mean intensity),[2]; [9],4.32
same,TRUE BITTER: Aftertaste (mean intensity),[2]; [9],0.15
same,ANISE: First Sip (mean intensity),[2]; [10],0.52
same,ARTIFICIAL SWEETENER/CHEMICAL: First Sip (mean intensity),[2]; [10],0.59
same,MOUTHCOATING: First Sip (mean intensity),[2]; [10],0.76
same,SWEET: First Sip (mean intensity),[2]; [10],8.06
same,TOTAL FLAVOR: First Sip (mean intensity),[2]; [10],8.67
same,TOTAL OFF FLAVOR: First Sip (mean intensity),[2]; [10],0.89
same,TRUE BITTER: First Sip (mean intensity),[2]; [10],0.29
same,ANISE: Second Sip (mean intensity),[2]; [11],0.41
same,ARTIFICIAL SWEETENER/CHEMICAL: Second Sip (mean intensity),[2]; [11],0.41
same,MOUTHCOATING: Second Sip (mean intensity),[2]; [11],0.89
same,SWEET: Second Sip (mean intensity),[2]; [11],7.43
same,TOTAL FLAVOR: Second Sip (mean intensity),[2]; [11],7.86
same,TOTAL OFF FLAVOR: Second Sip (mean intensity),[2]; [11],0.49
same,TRUE BITTER: Second Sip (mean intensity),[2]; [11],0.24
same,"Anise, comparison between the samples",[2]; aftertaste,Lowest
same,"Artificial Sweetener/Chemical, comparison between the samples",[2]; aftertaste,Lowest
same,"Sweetness, comparison between the samples",[2]; aftertaste,Lowest
same,"Total Flavor, comparison between the samples",[2]; aftertaste,Lowest
same,"True Bitter, comparison between the samples",[2]; aftertaste,Lowest
same,"Anise, comparison between the samples",[2]; first sip,Lowest
same,"Artificial Sweetener/Chemical, comparison between the samples",[2]; first sip,Lowest
same,"Mouthcoating, comparison between the samples",[2]; first sip,Lowest
same,"Sweetness, comparison between the samples",[2]; first sip,Lowest
same,"Total Flavor, comparison between the samples",[2]; first sip,Lowest
same,"Total Off Flavor, comparison between the samples",[2]; first sip,Lowest
same,"True Bitter, comparison between the samples",[2]; first sip,Lowest
same,"Anise, comparison between the samples",[2]; second sip,Lowest
same,"Artificial Sweetener/Chemical, comparison between the samples",[2]; second sip,Lowest
same,"Mouthcoating, comparison between the samples",[2]; second sip,Lowest
same,"Total Flavor, comparison between the samples",[2]; second sip,Lowest
same,"Total Off Flavor, comparison between the samples",[2]; second sip,Lowest
same,"True Bitter, comparison between the samples",[2]; second sip,Lowest
